From PubChem BioAssay (NCI)
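The compound was tested at five concentrations on cells cultured in 96-well plates, with a 48-hour exposure period. GI50 is the concentration that inhibits growth by half. The concentration for full growth arrest is given as TGI.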

What was measured:
Test in all cases: NCI anticancer screen, dose series, 48 h
786-0 renal = test system: 786-0 renal
A498 renal = test system: A498 renal
A549 NSCLC = test system: A549 NSCLC
ACHN renal = test system: ACHN renal
BT-549 breast = test system: BT-549 breast
CAKI-1 renal = test system: CAKI-1 renal
COLO 205 colon = test system: COLO 205 colon
DU-145 prostate = test system: DU-145 prostate
EKVX NSCLC = test system: EKVX NSCLC
HCC-2998 colon = test system: HCC-2998 colon
HCT-116 colon = test system: HCT-116 colon
HCT-15 colon = test system: HCT-15 colon
HL-60(TB) leukemia = test system: HL-60(TB) leukemia
HOP-62 NSCLC = test system: HOP-62 NSCLC
HOP-92 NSCLC = test system: HOP-92 NSCLC
HS 578T breast = test system: HS 578T breast
HT29 colon = test system: HT29 colon
IGROV1 ovarian = test system: IGROV1 ovarian
KM12 colon = test system: KM12 colon
LOX IMVI melanoma = test system: LOX IMVI melanoma
M14 melanoma = test system: M14 melanoma
MALME-3M melanoma = test system: MALME-3M melanoma
MCF7 breast = test system: MCF7 breast
MDA-MB-231 breast = test system: MDA-MB-231 breast
MDA-MB-435 = test system: MDA-MB-435
MOLT-4 leukemia = test system: MOLT-4 leukemia
NCI-H226 lung = test system: NCI-H226 lung
NCI-H23 lung = test system: NCI-H23 lung
NCI-H460 lung = test system: NCI-H460 lung
NCI-H522 lung = test system: NCI-H522 lung
NCI/ADR-RES ovarian = test system: NCI/ADR-RES ovarian
OVCAR-3 ovarian = test system: OVCAR-3 ovarian
OVCAR-4 ovarian = test system: OVCAR-4 ovarian
OVCAR-5 ovarian = test system: OVCAR-5 ovarian
OVCAR-8 ovarian = test system: OVCAR-8 ovarian
PC-3 prostate = test system: PC-3 prostate
RXF 393 renal = test system: RXF 393 renal
SF-268 CNS = test system: SF-268 CNS
SF-295 CNS = test system: SF-295 CNS
SF-539 CNS = test system: SF-539 CNS
SK-MEL-2 melanoma = test system: SK-MEL-2 melanoma
SK-MEL-28 melanoma = test system: SK-MEL-28 melanoma
SK-MEL-5 melanoma = test system: SK-MEL-5 melanoma
SK-OV-3 ovarian = test system: SK-OV-3 ovarian
SN12C renal = test system: SN12C renal
SNB-19 CNS = test system: SNB-19 CNS
SNB-75 CNS = test system: SNB-75 CNS
SR leukemia = test system: SR leukemia
SW-620 colon = test system: SW-620 colon
T-47D breast = test system: T-47D breast
TK-10 renal = test system: TK-10 renal
U251 CNS = test system: U251 CNS
UACC-257 melanoma = test system: UACC-257 melanoma
UACC-62 melanoma = test system: UACC-62 melanoma
UO-31 renal = test system: UO-31 renal

**Q.** Which results are given for `C/C=C(/C(=C/C)c1ccc(O)cc1)c1ccc(O)cc1`?
**A.** GI50 (786-0 renal): 5.54 µM; TGI (786-0 renal): 27 µM; GI50 (A498 renal): 6.22 µM; TGI (A498 renal): 19.3 µM; GI50 (A549 NSCLC): 4.04 µM; TGI (A549 NSCLC): 19 µM; GI50 (ACHN renal): 9.64 µM; TGI (ACHN renal): 21.4 µM; GI50 (BT-549 breast): 7.39 µM; TGI (BT-549 breast): 22.5 µM; GI50 (CAKI-1 renal): 3.42 µM; TGI (CAKI-1 renal): 16.9 µM; GI50 (COLO 205 colon): 3.25 µM; TGI (COLO 205 colon): 10.5 µM; GI50 (DU-145 prostate): 3.35 µM; TGI (DU-145 prostate): 10.4 µM; GI50 (EKVX NSCLC): 7.38 µM; TGI (EKVX NSCLC): 26.7 µM; GI50 (HCC-2998 colon): 8.64 µM; TGI (HCC-2998 colon): 24 µM; GI50 (HCT-116 colon): 4.58 µM; TGI (HCT-116 colon): 16.2 µM; GI50 (HCT-15 colon): 5.47 µM; TGI (HCT-15 colon): 20.3 µM; GI50 (HL-60(TB) leukemia): 3.9 µM; TGI (HL-60(TB) leukemia): 25.1 µM; GI50 (HOP-62 NSCLC): 3.62 µM; TGI (HOP-62 NSCLC): 16 µM; GI50 (HOP-92 NSCLC): 3.98 µM; TGI (HOP-92 NSCLC): 22.7 µM; GI50 (HS 578T breast): 4.3 µM; TGI (HS 578T breast): 30.2 µM; GI50 (HT29 colon): 3.71 µM; TGI (HT29 colon): 12.6 µM; GI50 (IGROV1 ovarian): 5.41 µM; TGI (IGROV1 ovarian): 36.8 µM; GI50 (KM12 colon): 3.73 µM; TGI (KM12 colon): 13.6 µM; GI50 (LOX IMVI melanoma): 5.51 µM; TGI (LOX IMVI melanoma): 24.3 µM; GI50 (M14 melanoma): 3.33 µM; TGI (M14 melanoma): 12.5 µM; GI50 (MALME-3M melanoma): 7.07 µM; TGI (MALME-3M melanoma): 31 µM; GI50 (MCF7 breast): 7.19 µM; TGI (MCF7 breast): 26.1 µM; GI50 (MDA-MB-231 breast): 4.58 µM; TGI (MDA-MB-231 breast): 22.2 µM; GI50 (MDA-MB-435): 1.19 µM; TGI (MDA-MB-435): 3.56 µM; GI50 (MOLT-4 leukemia): 5.43 µM; TGI (MOLT-4 leukemia): 24.2 µM; GI50 (NCI-H226 lung): 9.36 µM; TGI (NCI-H226 lung): 47 µM; GI50 (NCI-H23 lung): 5.3 µM; TGI (NCI-H23 lung): 21.9 µM; GI50 (NCI-H460 lung): 3.44 µM; TGI (NCI-H460 lung): 13.2 µM; GI50 (NCI-H522 lung): 3.63 µM; TGI (NCI-H522 lung): 16.9 µM; GI50 (NCI/ADR-RES ovarian): 2.81 µM; TGI (NCI/ADR-RES ovarian): 9.28 µM; GI50 (OVCAR-3 ovarian): 2.37 µM; TGI (OVCAR-3 ovarian): 5.38 µM; GI50 (OVCAR-4 ovarian): 8.18 µM; TGI (OVCAR-4 ovarian): 33.6 µM; GI50 (OVCAR-5 ovarian): 8.38 µM; TGI (OVCAR-5 ovarian): 23.2 µM; GI50 (OVCAR-8 ovarian): 4.65 µM; TGI (OVCAR-8 ovarian): 25.4 µM; GI50 (PC-3 prostate): 4.51 µM; TGI (PC-3 prostate): 17.4 µM; GI50 (RXF 393 renal): 4.03 µM; TGI (RXF 393 renal): 17.7 µM; GI50 (SF-268 CNS): 6.32 µM; TGI (SF-268 CNS): 22.8 µM; GI50 (SF-295 CNS): 2.48 µM; TGI (SF-295 CNS): 8.11 µM; GI50 (SF-539 CNS): 3.27 µM; TGI (SF-539 CNS): 13.8 µM; GI50 (SK-MEL-2 melanoma): 8.4 µM; TGI (SK-MEL-2 melanoma): 30.7 µM; GI50 (SK-MEL-28 melanoma): 5.71 µM; TGI (SK-MEL-28 melanoma): 21.1 µM; GI50 (SK-MEL-5 melanoma): 3.56 µM; TGI (SK-MEL-5 melanoma): 15.2 µM; GI50 (SK-OV-3 ovarian): 2.54 µM; TGI (SK-OV-3 ovarian): 8.88 µM; GI50 (SN12C renal): 5.22 µM; TGI (SN12C renal): 22.9 µM; GI50 (SNB-19 CNS): 4.79 µM; TGI (SNB-19 CNS): 21 µM; GI50 (SNB-75 CNS): 1.9 µM; TGI (SNB-75 CNS): 5.34 µM; GI50 (SR leukemia): 4.24 µM; TGI (SR leukemia): 92.9 µM; GI50 (SW-620 colon): 3.85 µM; TGI (SW-620 colon): 14.9 µM; GI50 (T-47D breast): 5.11 µM; TGI (T-47D breast): 21.9 µM; GI50 (TK-10 renal): 12.8 µM; TGI (TK-10 renal): 29.4 µM; GI50 (U251 CNS): 3.49 µM; TGI (U251 CNS): 15.9 µM; GI50 (UACC-257 melanoma): 9.4 µM; TGI (UACC-257 melanoma): 24.8 µM; GI50 (UACC-62 melanoma): 4.86 µM; TGI (UACC-62 melanoma): 18.7 µM; GI50 (UO-31 renal): 5.34 µM; TGI (UO-31 renal): 24.9 µM
